How the values were obtained:
MCF7 = experiment: Cytotoxicity against human MCF7 cells assessed as reduction in cell viability incubated for 48 hrs by CyQuant assay; assay type: functional, cell-based; conditions: MCF7, 48 h
[1] = target: Dual specificity protein kinase CLK1 (Homo sapiens, UniProt P49759); experiment: Inhibition of human recombinant CLK1 using ERMRPRKRQGSVR substrate by radiometric scintillation assay
[2] = target: Dual specificity protein kinase CLK2 (Homo sapiens, UniProt P49760); experiment: Inhibition of human recombinant CLK2 using YRRAAVPPSPSLSR substrate by radiometric scintillation assay
[3] = target: Dual specificity protein kinase CLK3 (Homo sapiens, UniProt P49761); experiment: Inhibition of human full length recombinant CLK3 using ERMRPRKRQGSVR substrate by radiometric scintillation assay
[4] = target: Dual specificity protein kinase CLK4 (Homo sapiens, UniProt Q9HAZ1); experiment: Inhibition of human recombinant CLK4 using YRRAAVPPSPSLS substrate by radiometric scintillation assay
Sequence of Dual specificity protein kinase CLK4 (Q9HAZ1 whole entry): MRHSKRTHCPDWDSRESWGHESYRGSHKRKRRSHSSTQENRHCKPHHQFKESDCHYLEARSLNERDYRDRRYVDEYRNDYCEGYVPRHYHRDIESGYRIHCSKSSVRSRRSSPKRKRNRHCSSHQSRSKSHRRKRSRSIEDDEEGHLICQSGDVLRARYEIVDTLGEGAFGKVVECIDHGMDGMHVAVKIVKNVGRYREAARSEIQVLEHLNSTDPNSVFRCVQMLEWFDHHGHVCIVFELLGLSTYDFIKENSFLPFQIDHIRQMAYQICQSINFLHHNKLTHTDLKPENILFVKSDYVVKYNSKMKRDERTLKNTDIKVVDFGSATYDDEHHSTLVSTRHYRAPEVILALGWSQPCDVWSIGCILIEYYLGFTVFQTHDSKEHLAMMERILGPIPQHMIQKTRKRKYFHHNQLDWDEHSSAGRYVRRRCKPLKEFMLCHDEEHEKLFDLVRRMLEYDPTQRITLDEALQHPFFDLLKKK

[5] = target: Dual specificity tyrosine-phosphorylation-regulated kinase 1A (Homo sapiens, UniProt Q13627); experiment: Inhibition of human full length recombinant DYRK1A using RRRFRPASPLRGPP substrate by radiometric scintillation assay
[6] = target: Dual specificity tyrosine-phosphorylation-regulated kinase 1B (Homo sapiens, UniProt Q9Y463); experiment: Inhibition of human full length recombinant DYRK1B using RRRFRPASPLRGPP substrate by radiometric scintillation assay
Sequence of Dual specificity tyrosine-phosphorylation-regulated kinase 1B (Q9Y463 whole entry): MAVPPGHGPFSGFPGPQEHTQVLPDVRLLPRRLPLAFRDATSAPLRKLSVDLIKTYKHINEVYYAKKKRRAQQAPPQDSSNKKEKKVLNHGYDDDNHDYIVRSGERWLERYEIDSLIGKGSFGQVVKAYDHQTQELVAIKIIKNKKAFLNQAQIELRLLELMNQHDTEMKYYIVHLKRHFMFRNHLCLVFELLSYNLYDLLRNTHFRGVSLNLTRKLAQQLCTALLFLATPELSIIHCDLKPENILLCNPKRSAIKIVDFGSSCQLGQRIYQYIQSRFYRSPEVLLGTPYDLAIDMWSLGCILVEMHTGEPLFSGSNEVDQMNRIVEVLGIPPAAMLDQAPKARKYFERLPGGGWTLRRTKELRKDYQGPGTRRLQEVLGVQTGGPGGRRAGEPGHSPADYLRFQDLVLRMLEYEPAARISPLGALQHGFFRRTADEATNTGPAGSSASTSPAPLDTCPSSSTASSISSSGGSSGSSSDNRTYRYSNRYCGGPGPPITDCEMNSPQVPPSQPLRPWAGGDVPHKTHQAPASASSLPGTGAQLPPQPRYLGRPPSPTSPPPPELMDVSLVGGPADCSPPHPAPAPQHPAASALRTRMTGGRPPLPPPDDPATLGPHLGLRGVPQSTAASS

[7] = target: T1, Dual specificity tyrosine-phosphorylation-regulated kinase 2 (Homo sapiens, UniProt Q92630); experiment: Inhibition of human full length recombinant DYRK2 using casein substrate by radiometric scintillation assay
T1 sequence (Q92630 whole entry): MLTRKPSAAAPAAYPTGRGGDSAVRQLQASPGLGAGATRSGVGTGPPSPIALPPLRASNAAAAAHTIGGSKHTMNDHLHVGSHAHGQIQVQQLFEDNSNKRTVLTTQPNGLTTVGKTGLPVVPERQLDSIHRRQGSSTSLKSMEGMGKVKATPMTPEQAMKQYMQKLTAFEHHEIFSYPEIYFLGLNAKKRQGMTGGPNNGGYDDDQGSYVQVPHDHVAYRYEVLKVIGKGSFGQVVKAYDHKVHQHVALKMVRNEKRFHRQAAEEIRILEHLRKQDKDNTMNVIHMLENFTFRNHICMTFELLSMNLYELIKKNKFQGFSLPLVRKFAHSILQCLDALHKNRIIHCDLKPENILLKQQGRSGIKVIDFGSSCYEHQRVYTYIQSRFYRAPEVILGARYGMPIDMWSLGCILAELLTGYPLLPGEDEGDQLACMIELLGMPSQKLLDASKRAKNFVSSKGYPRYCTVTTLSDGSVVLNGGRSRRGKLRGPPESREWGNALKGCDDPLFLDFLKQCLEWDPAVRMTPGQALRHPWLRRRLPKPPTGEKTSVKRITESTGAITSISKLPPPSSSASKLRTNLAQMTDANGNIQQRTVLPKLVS

[8] = target: Homeodomain-interacting protein kinase 1 (Homo sapiens, UniProt Q86Z02); experiment: Inhibition of human recombinant HIPK1 using myelin substrate by radiometric scintillation assay
Sequence of Homeodomain-interacting protein kinase 1 (Q86Z02 whole entry): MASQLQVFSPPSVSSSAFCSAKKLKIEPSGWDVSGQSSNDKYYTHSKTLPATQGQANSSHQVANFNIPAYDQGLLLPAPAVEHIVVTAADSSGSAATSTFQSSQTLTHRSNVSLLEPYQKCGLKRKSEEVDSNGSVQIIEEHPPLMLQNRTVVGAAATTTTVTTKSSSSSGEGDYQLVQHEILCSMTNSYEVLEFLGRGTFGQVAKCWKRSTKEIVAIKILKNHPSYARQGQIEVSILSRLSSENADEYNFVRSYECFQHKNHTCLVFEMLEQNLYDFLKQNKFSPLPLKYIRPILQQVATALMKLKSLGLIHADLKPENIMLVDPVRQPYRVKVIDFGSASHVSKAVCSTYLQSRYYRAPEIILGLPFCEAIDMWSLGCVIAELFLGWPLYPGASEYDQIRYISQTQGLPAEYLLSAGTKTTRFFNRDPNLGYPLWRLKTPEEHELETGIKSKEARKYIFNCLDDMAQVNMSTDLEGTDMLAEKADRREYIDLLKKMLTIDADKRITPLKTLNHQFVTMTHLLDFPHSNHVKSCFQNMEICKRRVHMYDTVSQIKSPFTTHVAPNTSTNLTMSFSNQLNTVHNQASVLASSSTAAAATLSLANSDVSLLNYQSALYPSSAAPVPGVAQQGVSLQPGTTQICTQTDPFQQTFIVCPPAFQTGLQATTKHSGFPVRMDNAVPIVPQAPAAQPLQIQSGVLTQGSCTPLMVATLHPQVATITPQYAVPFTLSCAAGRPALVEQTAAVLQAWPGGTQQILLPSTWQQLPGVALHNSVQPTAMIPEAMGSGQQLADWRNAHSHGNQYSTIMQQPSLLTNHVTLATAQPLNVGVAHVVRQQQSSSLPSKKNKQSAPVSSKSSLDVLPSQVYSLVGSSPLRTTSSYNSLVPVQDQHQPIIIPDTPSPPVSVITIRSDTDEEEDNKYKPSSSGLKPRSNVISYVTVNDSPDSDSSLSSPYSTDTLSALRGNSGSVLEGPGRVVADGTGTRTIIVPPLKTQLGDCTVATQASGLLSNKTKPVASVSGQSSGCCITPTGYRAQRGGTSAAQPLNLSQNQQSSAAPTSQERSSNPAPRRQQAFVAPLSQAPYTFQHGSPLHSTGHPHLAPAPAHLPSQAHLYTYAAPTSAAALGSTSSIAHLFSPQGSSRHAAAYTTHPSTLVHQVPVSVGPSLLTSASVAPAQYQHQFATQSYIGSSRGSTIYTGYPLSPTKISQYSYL

[9] = target: Homeodomain-interacting protein kinase 2 (Homo sapiens, UniProt Q9H2X6); experiment: Inhibition of human recombinant HIPK2 using myelin substrate by radiometric scintillation assay
Sequence of Homeodomain-interacting protein kinase 2 (Q9H2X6 whole entry): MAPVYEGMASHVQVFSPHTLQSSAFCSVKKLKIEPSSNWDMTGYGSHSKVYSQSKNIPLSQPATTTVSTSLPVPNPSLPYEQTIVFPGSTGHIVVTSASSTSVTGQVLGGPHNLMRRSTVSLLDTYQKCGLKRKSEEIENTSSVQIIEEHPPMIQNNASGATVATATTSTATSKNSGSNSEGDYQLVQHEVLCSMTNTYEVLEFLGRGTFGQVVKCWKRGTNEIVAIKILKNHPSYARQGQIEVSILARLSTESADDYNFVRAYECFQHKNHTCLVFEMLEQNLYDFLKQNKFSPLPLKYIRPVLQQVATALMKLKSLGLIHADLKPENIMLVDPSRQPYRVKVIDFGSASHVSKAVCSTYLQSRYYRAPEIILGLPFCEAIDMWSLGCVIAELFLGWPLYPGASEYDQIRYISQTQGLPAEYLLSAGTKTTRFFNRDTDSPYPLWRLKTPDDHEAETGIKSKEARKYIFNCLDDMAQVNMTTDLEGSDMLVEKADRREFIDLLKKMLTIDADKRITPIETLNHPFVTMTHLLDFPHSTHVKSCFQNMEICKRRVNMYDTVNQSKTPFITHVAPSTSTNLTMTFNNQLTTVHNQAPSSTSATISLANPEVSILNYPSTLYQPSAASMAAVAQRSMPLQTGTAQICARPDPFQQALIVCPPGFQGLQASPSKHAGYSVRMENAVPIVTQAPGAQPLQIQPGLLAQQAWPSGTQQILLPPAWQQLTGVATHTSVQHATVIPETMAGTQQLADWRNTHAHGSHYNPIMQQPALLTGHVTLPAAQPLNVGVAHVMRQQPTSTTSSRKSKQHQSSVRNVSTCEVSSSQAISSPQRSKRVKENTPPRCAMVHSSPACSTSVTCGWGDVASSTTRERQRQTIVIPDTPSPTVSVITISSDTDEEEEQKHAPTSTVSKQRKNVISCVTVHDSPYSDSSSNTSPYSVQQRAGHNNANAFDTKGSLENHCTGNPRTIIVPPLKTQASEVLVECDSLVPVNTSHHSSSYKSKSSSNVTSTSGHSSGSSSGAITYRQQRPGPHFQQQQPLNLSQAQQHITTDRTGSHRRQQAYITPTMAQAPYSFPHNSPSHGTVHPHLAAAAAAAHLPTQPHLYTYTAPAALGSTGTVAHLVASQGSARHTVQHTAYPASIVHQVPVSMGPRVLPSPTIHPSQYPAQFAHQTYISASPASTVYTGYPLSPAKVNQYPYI

[10] = target: Homeodomain-interacting protein kinase 3 (Homo sapiens, UniProt Q9H422); experiment: Inhibition of human recombinant HIPK3 using myelin substrate by radiometric scintillation assay
Sequence of Homeodomain-interacting protein kinase 3 (Q9H422 whole entry): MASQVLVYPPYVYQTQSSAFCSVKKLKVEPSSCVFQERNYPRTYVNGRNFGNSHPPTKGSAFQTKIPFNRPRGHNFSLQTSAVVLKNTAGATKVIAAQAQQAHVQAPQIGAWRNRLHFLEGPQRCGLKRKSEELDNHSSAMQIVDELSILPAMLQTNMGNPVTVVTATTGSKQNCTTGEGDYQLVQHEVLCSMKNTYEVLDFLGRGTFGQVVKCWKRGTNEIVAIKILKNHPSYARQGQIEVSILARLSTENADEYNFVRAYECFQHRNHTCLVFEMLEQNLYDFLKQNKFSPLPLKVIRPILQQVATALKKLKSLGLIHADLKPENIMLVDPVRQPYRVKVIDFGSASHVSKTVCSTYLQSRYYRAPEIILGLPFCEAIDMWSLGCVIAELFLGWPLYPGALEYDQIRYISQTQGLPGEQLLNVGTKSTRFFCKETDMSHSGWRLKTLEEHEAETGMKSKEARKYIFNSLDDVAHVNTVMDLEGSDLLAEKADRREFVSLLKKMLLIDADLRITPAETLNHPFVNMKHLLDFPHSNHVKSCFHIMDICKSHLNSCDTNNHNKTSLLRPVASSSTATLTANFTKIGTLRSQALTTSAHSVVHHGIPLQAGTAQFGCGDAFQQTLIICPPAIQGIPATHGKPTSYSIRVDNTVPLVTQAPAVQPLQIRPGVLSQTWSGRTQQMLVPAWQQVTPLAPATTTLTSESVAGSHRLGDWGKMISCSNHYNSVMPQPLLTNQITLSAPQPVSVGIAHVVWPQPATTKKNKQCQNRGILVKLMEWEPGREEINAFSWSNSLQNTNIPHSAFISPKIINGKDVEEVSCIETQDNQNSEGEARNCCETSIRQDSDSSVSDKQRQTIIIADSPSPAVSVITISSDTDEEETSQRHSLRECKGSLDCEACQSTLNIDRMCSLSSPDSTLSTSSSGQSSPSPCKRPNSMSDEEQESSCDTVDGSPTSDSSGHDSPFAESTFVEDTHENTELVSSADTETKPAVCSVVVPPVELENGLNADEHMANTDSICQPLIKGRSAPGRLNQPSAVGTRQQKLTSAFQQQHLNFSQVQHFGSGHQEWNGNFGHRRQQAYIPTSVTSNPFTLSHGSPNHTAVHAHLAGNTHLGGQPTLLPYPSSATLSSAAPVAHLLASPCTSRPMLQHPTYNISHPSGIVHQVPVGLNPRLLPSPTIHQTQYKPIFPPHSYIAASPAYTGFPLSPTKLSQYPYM

SMILES	IC50 (MCF7)	IC50 [1]	IC50 [2]	IC50 [3]	IC50 [4]	IC50 [5]	IC50 [6]	IC50 [7]	IC50 [8]	IC50 [9]	IC50 [10]
Cn1cc(-c2ccc3occ(-c4cccc(-c5ccncc5)c4)c3n2)cn1	4600 nM	–	–	–	–	–	–	–	–	–	–
CC(C)(C)c1ccc(-c2coc3ccc(-c4cnn(CCN5CCOCC5)c4)nc23)cc1	–	> 3000 nM	> 3000 nM	> 3000 nM	> 3000 nM	> 3000 nM	> 3000 nM	> 3000 nM	> 3000 nM	> 3000 nM	> 3000 nM
Cn1cc(-c2ccc3occ(-c4cccc(-c5cc[nH]n5)c4)c3n2)cn1	–	14 nM	16 nM	1640 nM	15 nM	116 nM	1890 nM	> 3000 nM	125 nM	30 nM	128 nM
c1ccc(-c2coc3ccc(-c4cn[nH]c4)nc23)cc1	–	–	72 nM	–	41 nM	–	–	1150 nM	62 nM	42 nM	128 nM
CC(C)(C)c1ccc(-c2coc3ccc(-c4cnsc4)nc23)cc1	–	> 3000 nM	> 3000 nM	> 3000 nM	> 3000 nM	> 3000 nM	> 3000 nM	> 3000 nM	> 3000 nM	> 3000 nM	> 3000 nM
CC(C)Cc1ccc(-c2coc3ccc(-c4cn[nH]c4)nc23)cc1	–	671 nM	827 nM	> 3000 nM	896 nM	> 3000 nM	> 3000 nM	> 3000 nM	685 nM	501 nM	1230 nM
Cn1cc(-c2ccc3occ(-c4ccc(C(C)(C)C)cc4)c3n2)cn1	–	> 3000 nM	> 3000 nM	> 3000 nM	> 3000 nM	> 3000 nM	> 3000 nM	> 3000 nM	> 3000 nM	> 3000 nM	> 3000 nM
Cn1cc(-c2ccc3occ(-c4cccc(C5CCNCC5)c4)c3n2)cn1	–	59 nM	90 nM	> 3000 nM	52 nM	324 nM	> 3000 nM	> 3000 nM	264 nM	179 nM	300 nM
c1n[nH]cc1-c1ccc2occ(-c3ccc(C4CCCCC4)cc3)c2n1	–	2110 nM	> 3000 nM	> 3000 nM	776 nM	> 3000 nM	> 3000 nM	> 3000 nM	> 3000 nM	654 nM	> 3000 nM
c1ccc(Cc2ccc(-c3coc4ccc(-c5cn[nH]c5)nc34)cc2)cc1	–	450 nM	1840 nM	> 3000 nM	355 nM	> 3000 nM	> 3000 nM	> 3000 nM	921 nM	484 nM	> 3000 nM
c1n[nH]cc1-c1ccc2occ(-c3ccc(C45CC6CC(CC(C6)C4)C5)cc3)c2n1	–	> 3000 nM	> 3000 nM	> 3000 nM	> 3000 nM	> 3000 nM	> 3000 nM	> 3000 nM	> 3000 nM	> 3000 nM	> 3000 nM
Cn1cc(-c2ccc3occ(-c4ccc(C(C)(C)C)cc4)c3n2)nn1	–	> 3000 nM	> 3000 nM	> 3000 nM	> 3000 nM	> 3000 nM	> 3000 nM	> 3000 nM	> 3000 nM	> 3000 nM	> 3000 nM
c1ccc2cc(-c3coc4ccc(-c5cn[nH]c5)nc34)ccc2c1	–	–	25 nM	–	31 nM	–	–	1430 nM	16 nM	5 nM	38 nM
Cn1ccc(-c2ccc3occ(-c4ccc(C(C)(C)C)cc4)c3n2)n1	–	> 3000 nM	> 3000 nM	> 3000 nM	> 3000 nM	> 3000 nM	> 3000 nM	> 3000 nM	> 3000 nM	> 3000 nM	> 3000 nM
CC(C)(C)c1ccc(-c2coc3ccc(-c4nn[nH]n4)nc23)cc1	–	> 3000 nM	> 3000 nM	> 3000 nM	> 3000 nM	> 3000 nM	> 3000 nM	> 3000 nM	545 nM	357 nM	720 nM
Cn1cc(-c2ccc3occ(-c4cccc(-c5cn[nH]c5)c4)c3n2)cn1	30000 nM	16 nM	37 nM	1590 nM	19 nM	139 nM	1300 nM	> 3000 nM	177 nM	102 nM	164 nM
COc1ccc(-c2coc3ccc(-c4cn[nH]c4)nc23)cc1	–	–	39 nM	–	46 nM	–	–	1000 nM	33 nM	15 nM	66 nM
C=C(C)c1ccc(-c2coc3ccc(-c4cn[nH]c4)nc23)cc1	–	68 nM	40 nM	> 3000 nM	42 nM	1370 nM	> 3000 nM	> 3000 nM	51 nM	41 nM	65 nM
Cn1cc(-c2cccc(-c3coc4ccc(-c5cnn(C)c5)nc34)c2)cn1	> 100000 nM	18 nM	16 nM	> 3000 nM	17 nM	147 nM	2420 nM	771 nM	209 nM	70 nM	125 nM
Cn1cc(-c2coc3ccc(-c4cn[nH]c4)nc23)cn1	–	–	176 nM	–	45 nM	–	–	1210 nM	235 nM	28 nM	–
CC(C)(C)c1ccc(-c2coc3ccc(-c4cc[nH]n4)nc23)cc1	–	> 3000 nM	> 3000 nM	> 3000 nM	> 3000 nM	> 3000 nM	> 3000 nM	> 3000 nM	> 3000 nM	1280 nM	> 3000 nM
CC1(c2ccc(-c3coc4ccc(-c5cn[nH]c5)nc34)cc2)CC1	–	308 nM	155 nM	> 3000 nM	320 nM	> 3000 nM	> 3000 nM	> 3000 nM	220 nM	68 nM	441 nM
CN1CCC(c2cccc(-c3coc4ccc(-c5cnn(C)c5)nc34)c2)CC1	–	169 nM	667 nM	> 3000 nM	116 nM	568 nM	> 3000 nM	> 3000 nM	354 nM	260 nM	692 nM
c1ccc(-c2ccc(-c3coc4ccc(-c5cn[nH]c5)nc34)cc2)cc1	–	114 nM	529 nM	> 3000 nM	126 nM	> 3000 nM	> 3000 nM	> 3000 nM	278 nM	172 nM	807 nM
